Data from patent publication US20100173983A1, “METHOD FOR INDUCING AUTOPHAGY” (priority 2007, published 2010).

How the values were obtained:
ovarian cancer cells = assay: Cell viability in presence of pan caspase inhibitor ZVAD-FMK; type: cell-based, Human; conditions: ZVAD-FMK 0.5 μg/ml
Method: FIG. 5. Comparative cell viability plots of dehydroequol (A) and Cpd 1 (B) treated cells in the presence and absence of the pan caspase inhibitor ZVAD-FMK (0.5 μg/ml).
(§1) Cell viability was evaluated using the CellTiter 96 Aqueous One Solution Cell Proliferation Assay (Promega, Madison, Wis.) according to the manufacturer's instructions. The values from the treated cells were compared with the values generated from the untreated cells and reported as percent viability. Each experiment was performed in triplicate.

caspase 9 = assay: Caspase-Glo 9 assay in R182 cells; type: cell-based, Human; conditions: R182 ovarian cancer explants; dose response and duration of exposure (5 μg/ml, 0-25 hr)
Method: FIG. 3. Comparative induction of caspase 9 in R182 ovarian cancer explants by Cpd 1 and dehydroequol using either dose response (A) or duration of exposure (B). Caspase 9 activity was assessed using the Caspase-Glo 9 assay.
(§2) For caspase activity assays, 10 μg of protein in 50 μL total volume was mixed with 50 μL of equilibrated Caspase-Glo 3/7, 8, or 9 reagents (Promega). After incubating at room temperature for 1 hour, luminescence was measured using TD 20/20 Luminometer (Turner Designs, Sunnyvale, Calif.). Blank values were subtracted and fold-increase in activity was calculated based on activity measured from untreated cells. Each sample was measured in triplicate.

caspase 3 [1] = assay: Caspase 3 activity in xenograft tumour sections; type: in vivo, SCID mice; conditions: tumour-bearing mice; not shown
caspase 3 [2] = assay: Caspase-Glo 3/7 assay in R182 cells; type: cell-based, Human; conditions: R182 ovarian cancer explants; dose response and duration of exposure (5 μg/ml, 0-25 hr)
Method: FIG. 2. Comparative induction of caspase 3 in R182 ovarian cancer explants by Cpd 1 and dehydroequol using either dose response (A) or duration of exposure (B). Caspase 3 activity was assessed using the Caspase-Glo 3/7 assays.
as §2

caspase 8 = assay: Caspase-Glo 8 assay in R182 cells; type: cell-based, Human; conditions: R182 ovarian cancer explants; dose response and duration of exposure (5 μg/ml, 0-25 hr)
Method: FIG. 4. Comparative induction of caspase 8 in R182 ovarian cancer explants by Cpd 1 and dehydroequol using either dose response (A) or duration of exposure (B). Caspase 8 activity was assessed using the Caspase-Glo 8 assay.
as §2

[3] = test system: CP70 (cell line), R179, R182, R585 (primary ovarian cancer explants); assay: Cell viability, CellTiter 96 Aqueous One Solution Cell Proliferation Assay, ovarian cancer cells; type: cell-based, Human; conditions: concentrations up to 10 μg/ml, 24 hr exposure
Method: FIG. 1. Comparative cytotoxicity of dehydroequol and Compound I as described herein (Cpd 1) against normal and ovarian cancer cells: CP70 (cell line), R179, R182, R585 (primary ovarian cancer explants) and OSE (normal ovarian surface epithelial cells). […] Both compounds were tested at concentrations up to 10 μg/ml and exposed to cells for 24 hr.
Human EOC cell lines A2780, CP70, and OSE were propagated in RPMI plus 10% fetal bovine serum (FBS) (Gemini Bio-Products, Woodland, Calif.) at 37° C. in a 5% CO2 atmosphere. Primary EOC cells (R179, R182, R585) were isolated from malignant ovarian ascites and cultured as previously described (Kamsteeg et al., 2003). Dehydroequol and Compound 1 (Cpd 1) were obtained from Novogen (Australia). All other reagents were purchased from Sigma Chemical (St. Louis, Mo.). The pan caspase inhibitor Z-VAD-FMK was obtained from R&D Systems (Minneapolis, Minn.).
as §1

Question: Which results are given for `Oc1ccc(C2=Cc3ccc(O)cc3OC2)cc1` [Dehydroequol, reference compound]?
Answer: cell death in the presence of pan caspase inhibitor ZVAD-FMK (ovarian cancer cells): apoptosis was inhibited; caspase 9 activity (caspase 9): activation of caspase 3 is time (5 μg/ml) and dose dependent; caspase 3 activity in tumour sections (caspase 3 [1]): observed only in tumour sections taken from mice dosed with dehydroequol; caspase 3 activity (caspase 3 [2]): activation of caspase 3 is time (5 μg/ml) and dose dependent; caspase 8 activity (caspase 8): activation of caspase 8 is time (5 μg/ml) and dose dependent; cell viability of ovarian cancer cells [3]: does not exhibit this pan activity
